In PubChem BioAssay (NCI):
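A five-concentration, 48-hour dose response in 96-well plates underlies each endpoint, interpolated linearly between surrounding concentrations. GI50 is the concentration that inhibits growth by half. TGI is the concentration that stops growth completely.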

Assays:
Assay in all cases: growth of human tumour cells (NCI), 48 h
HOP-62 NSCLC = system: HOP-62 NSCLC
TK-10 renal = system: TK-10 renal
RXF 393 renal = system: RXF 393 renal
DU-145 prostate = system: DU-145 prostate
SF-268 CNS = system: SF-268 CNS
A498 renal = system: A498 renal
SK-MEL-5 melanoma = system: SK-MEL-5 melanoma
UACC-257 melanoma = system: UACC-257 melanoma
OVCAR-5 ovarian = system: OVCAR-5 ovarian
OVCAR-4 ovarian = system: OVCAR-4 ovarian
CCRF-CEM leukemia = system: CCRF-CEM leukemia
SN12C renal = system: SN12C renal
PC-3 prostate = system: PC-3 prostate
NCI/ADR-RES ovarian = system: NCI/ADR-RES ovarian
SNB-75 CNS = system: SNB-75 CNS
T-47D breast = system: T-47D breast
RPMI-8226 leukemia = system: RPMI-8226 leukemia
UO-31 renal = system: UO-31 renal
NCI-H226 lung = system: NCI-H226 lung
HCC-2998 colon = system: HCC-2998 colon
786-0 renal = system: 786-0 renal
LOX IMVI melanoma = system: LOX IMVI melanoma
SF-295 CNS = system: SF-295 CNS
SNB-19 CNS = system: SNB-19 CNS
HL-60(TB) leukemia = system: HL-60(TB) leukemia
COLO 205 colon = system: COLO 205 colon
ACHN renal = system: ACHN renal
U251 CNS = system: U251 CNS
MALME-3M melanoma = system: MALME-3M melanoma
HT29 colon = system: HT29 colon
EKVX NSCLC = system: EKVX NSCLC
K-562 leukemia = system: K-562 leukemia
IGROV1 ovarian = system: IGROV1 ovarian
M14 melanoma = system: M14 melanoma
HCT-15 colon = system: HCT-15 colon
NCI-H522 lung = system: NCI-H522 lung
MDA-MB-435 = system: MDA-MB-435
SW-620 colon = system: SW-620 colon
SF-539 CNS = system: SF-539 CNS
SK-MEL-28 melanoma = system: SK-MEL-28 melanoma
MCF7 breast = system: MCF7 breast
SK-OV-3 ovarian = system: SK-OV-3 ovarian
HS 578T breast = system: HS 578T breast
HCT-116 colon = system: HCT-116 colon
OVCAR-3 ovarian = system: OVCAR-3 ovarian
MDA-MB-231 breast = system: MDA-MB-231 breast
NCI-H460 lung = system: NCI-H460 lung
SK-MEL-2 melanoma = system: SK-MEL-2 melanoma
KM12 colon = system: KM12 colon
CAKI-1 renal = system: CAKI-1 renal
HOP-92 NSCLC = system: HOP-92 NSCLC
MOLT-4 leukemia = system: MOLT-4 leukemia
OVCAR-8 ovarian = system: OVCAR-8 ovarian
BT-549 breast = system: BT-549 breast
UACC-62 melanoma = system: UACC-62 melanoma
A549 NSCLC = system: A549 NSCLC
SR leukemia = system: SR leukemia

O=C(CSc1nc2sc3c(c2c(=O)n1-c1ccc(Cl)cc1)CCCC3)NNC(=O)Nc1ccc(Cl)c(C(F)(F)F)c1
GI50 (HOP-62 NSCLC): 4.3 µM | TGI (HOP-62 NSCLC): 19.1 µM | GI50 (TK-10 renal): 4.3 µM | TGI (TK-10 renal): 23.6 µM | GI50 (RXF 393 renal): 2.58 µM | TGI (RXF 393 renal): 9.32 µM | GI50 (DU-145 prostate): 3.86 µM | TGI (DU-145 prostate): > 100 µM | GI50 (SF-268 CNS): 6.21 µM | TGI (SF-268 CNS): > 100 µM | GI50 (A498 renal): 2.58 µM | TGI (A498 renal): 8.61 µM | GI50 (SK-MEL-5 melanoma): 4.06 µM | TGI (SK-MEL-5 melanoma): 14.7 µM | GI50 (UACC-257 melanoma): 2.94 µM | TGI (UACC-257 melanoma): 12.6 µM | GI50 (OVCAR-5 ovarian): 4.4 µM | TGI (OVCAR-5 ovarian): 19.7 µM | GI50 (OVCAR-4 ovarian): 1.92 µM | TGI (OVCAR-4 ovarian): 4.31 µM | GI50 (CCRF-CEM leukemia): 3.65 µM | TGI (CCRF-CEM leukemia): > 100 µM | GI50 (SN12C renal): 3.3 µM | TGI (SN12C renal): 12.9 µM | GI50 (PC-3 prostate): 2.05 µM | TGI (PC-3 prostate): 6.62 µM | GI50 (NCI/ADR-RES ovarian): 6.57 µM | TGI (NCI/ADR-RES ovarian): 97.3 µM | GI50 (SNB-75 CNS): 2.01 µM | TGI (SNB-75 CNS): 7.88 µM | GI50 (T-47D breast): 1.83 µM | TGI (T-47D breast): 4.2 µM | GI50 (RPMI-8226 leukemia): 2.99 µM | TGI (RPMI-8226 leukemia): 17.9 µM | GI50 (UO-31 renal): 2.85 µM | TGI (UO-31 renal): 29.5 µM | GI50 (NCI-H226 lung): 2.89 µM | TGI (NCI-H226 lung): 11.3 µM | GI50 (HCC-2998 colon): 3.04 µM | TGI (HCC-2998 colon): 9.42 µM | GI50 (786-0 renal): 4.23 µM | TGI (786-0 renal): 16 µM | GI50 (LOX IMVI melanoma): 1.76 µM | TGI (LOX IMVI melanoma): 3.49 µM | GI50 (SF-295 CNS): 3.11 µM | TGI (SF-295 CNS): 8.87 µM | GI50 (SNB-19 CNS): 4.08 µM | TGI (SNB-19 CNS): > 100 µM | GI50 (HL-60(TB) leukemia): 3.18 µM | TGI (HL-60(TB) leukemia): 17.7 µM | GI50 (COLO 205 colon): 2.05 µM | TGI (COLO 205 colon): 4.7 µM | GI50 (ACHN renal): 3.56 µM | TGI (ACHN renal): 16.9 µM | GI50 (U251 CNS): 2.93 µM | TGI (U251 CNS): 10.9 µM | GI50 (MALME-3M melanoma): 2.45 µM | TGI (MALME-3M melanoma): 6.82 µM | GI50 (HT29 colon): 3.05 µM | TGI (HT29 colon): 9.54 µM | GI50 (EKVX NSCLC): 2.68 µM | TGI (EKVX NSCLC): 8.85 µM | GI50 (K-562 leukemia): 2.51 µM | TGI (K-562 leukemia): > 100 µM | GI50 (IGROV1 ovarian): 4.71 µM | TGI (IGROV1 ovarian): 91.7 µM | GI50 (M14 melanoma): 3.42 µM | TGI (M14 melanoma): 14.1 µM | GI50 (HCT-15 colon): 3.59 µM | TGI (HCT-15 colon): 18.6 µM | GI50 (NCI-H522 lung): 1.96 µM | TGI (NCI-H522 lung): 6.05 µM | GI50 (MDA-MB-435): 3.67 µM | TGI (MDA-MB-435): 14.6 µM | GI50 (SW-620 colon): 3.16 µM | TGI (SW-620 colon): 13.2 µM | GI50 (SF-539 CNS): 6.53 µM | TGI (SF-539 CNS): 21.2 µM | GI50 (SK-MEL-28 melanoma): 4.48 µM | TGI (SK-MEL-28 melanoma): 17.3 µM | GI50 (MCF7 breast): 2.77 µM | TGI (MCF7 breast): 17.6 µM | GI50 (SK-OV-3 ovarian): 4.66 µM | TGI (SK-OV-3 ovarian): 20.4 µM | GI50 (HS 578T breast): 6.93 µM | TGI (HS 578T breast): 73.1 µM | GI50 (HCT-116 colon): 1.87 µM | TGI (HCT-116 colon): 3.99 µM | GI50 (OVCAR-3 ovarian): 2.95 µM | TGI (OVCAR-3 ovarian): 10.6 µM | GI50 (MDA-MB-231 breast): 4.45 µM | TGI (MDA-MB-231 breast): 20.5 µM | GI50 (NCI-H460 lung): 3.16 µM | TGI (NCI-H460 lung): 10.9 µM | GI50 (SK-MEL-2 melanoma): 2.46 µM | TGI (SK-MEL-2 melanoma): 7.24 µM | GI50 (KM12 colon): 3.75 µM | TGI (KM12 colon): > 100 µM | GI50 (CAKI-1 renal): 1.99 µM | TGI (CAKI-1 renal): 6.17 µM | GI50 (HOP-92 NSCLC): 1.44 µM | TGI (HOP-92 NSCLC): 3.97 µM | GI50 (MOLT-4 leukemia): 2.74 µM | TGI (MOLT-4 leukemia): 14.1 µM | GI50 (OVCAR-8 ovarian): 3.12 µM | TGI (OVCAR-8 ovarian): 11.9 µM | GI50 (BT-549 breast): 3.5 µM | TGI (BT-549 breast): 14.4 µM | GI50 (UACC-62 melanoma): 2.5 µM | TGI (UACC-62 melanoma): 10 µM | GI50 (A549 NSCLC): 3.3 µM | TGI (A549 NSCLC): 15.7 µM | GI50 (SR leukemia): 3.3 µM | TGI (SR leukemia): 46.1 µM
